For one test, the target named is T1, human D4.2 receptor (Homo sapiens, UniProt P21917, DEL265-296).
T1 construct: expressed in transfected cells; host or cells: CHO K1 cells
T1 sequence (P21917 with tags, fused parts or gaps DEL265-296): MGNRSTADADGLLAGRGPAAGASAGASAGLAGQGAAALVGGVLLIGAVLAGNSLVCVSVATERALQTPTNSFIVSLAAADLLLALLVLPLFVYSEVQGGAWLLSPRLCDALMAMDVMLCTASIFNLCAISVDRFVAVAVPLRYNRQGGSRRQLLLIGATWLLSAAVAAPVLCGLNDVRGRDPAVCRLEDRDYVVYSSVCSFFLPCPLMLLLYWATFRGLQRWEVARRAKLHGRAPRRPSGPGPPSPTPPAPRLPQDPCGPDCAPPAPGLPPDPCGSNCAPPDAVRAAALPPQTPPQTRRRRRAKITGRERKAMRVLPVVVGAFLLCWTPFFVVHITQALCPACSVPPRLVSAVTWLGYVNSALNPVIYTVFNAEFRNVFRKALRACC
As to the kind of experiment: Inhibition of [3H]spiperone binding to human dopamine D4.2 receptors. To be noted: human D4.2, CHO K1 membranes. An excerpt:
A cell line expressing human dopamine D2 (Long form) receptors was purchased from Oregon Health Sciences University, Portland, Oreg. The D2 receptor cDNA was subcloned into an expression vector, pRc/CMV. The plasmids were transfected by electroporation into CHO K1 cells. A single stable transfectant, resistant to the antibiotic 418, was isolated and selected for use in the binding studies. For D4 binding, CHO K1 cells stably transfected to express the human recombinant dopamine D4.2 receptor subtype, as described by Shih, et al., "The expression and functional characterization of human dopamine D4.2 receptor in CHO K1 cells," Soc. Neurosci., 1995;21(Part 1):621.
CHO K1 cells expressing either human D2 and D4.2 receptors were grown in 162 cm^2 culture flasks in F12 medium (Gibco Laboratories, Grand Island, N.Y.) supplemented with 10% fetal bovine serum (FBS, Hyclone, Logan, Utah) in an atmosphere of 5% CO2 /95% air at 37° C. Cells were grown until confluent, after which growth medium was removed and replaced with 0.02% ethylene diamine tetracetate (EDTA) in a phosphate-buffered saline solution (Sigma Chemical Co., St. Louis, Mo.) and scraped from the flasks. The cells were centrifuged at about 1000×g for 10 minutes at […] and then resuspended in TEM buffer (25 mM Tris-HCl, pH 7.4, 5 mM EDTA, and 6 mM MgCl2) for D2 or the D4.2 buffer (50 mM Tris-HCl, pH 7.4, 5 mM EDTA, 1.5 mM CaCl2, 5 mM KCl, and 120 mM NaCl) and homogenized. The membranes were pelleted by centrifugation at 20,000×g at […] for 20 minutes. Then the pellets were resuspended in appropriate buffer at 1 mL/flask and stored at -70° C. until used in the receptor binding assay.
Receptor Binding Assays: D2,D4.2 Dopamine Receptors
After 60 minutes incubation at 25° C., the incubations were terminated by rapid filtration through Whatmann F/B lass fibre filters (soaked for 1 hour in 0.5% polyethylenimine) on a cell harvester, with three washes of 1 mL ice-cold buffer. Individual filter disks containing the bound ligand were placed in counting vials with 4 mL of scintillation fluid (Ready Gel, Beckman Instrument Inc., Fullerton, Calif.) and then counted in a Beckman LS-6800 liquid scintillation counter at an efficiency of 45%. Nonspecific binding was defined in presence of 1 mM of haloperidol.
Saturation and competition binding data were analyzed using an iterative nonlinear least-square curve-fitting Ligand program. In competition experiments, apparent Ki values were calculated from IC50 values by method of Cheng and Prusoff, "Relationship between the inhibition constant (Ki) and the concentration of inhibitor which causes 50% inhibition (IC50) of an enzymatic reaction," Biochem. Pharmacol., 1973;22:3099-3108. Experimental compounds were made up as stock solutions in dimethyl sulfoxide (DMSO). […] Each observation was carried out in triplicate. To allow these calculations, Ki values were measured for the interaction of various ligands with the receptor. […]

The target in another test is T2, human DA D4.2 receptor (Homo sapiens, UniProt P21917, DEL265-296).
T2 construct: expressed in transfected cells
T2 sequence (P21917 with tags, fused parts or gaps DEL265-296): T1 sequence (P21917 with tags, fused parts or gaps DEL265-296)
In words: [3H]Thymidine uptake assay (block of quinpirole stimulation in CHO pro-5 cells transfected with human DA D4.2 receptor). The test is classed as cell-based. To be noted: human D4.2, quinpirole-stimulated uptake. The protocol:
Compounds were tested for their ability to bind to dopamine (DA) receptors as measured by their inhibition of [^3 H]spiperone binding to the human D2, and D4.2 receptors (Pugsley, et al., 1995). The ability of test compounds to block the stimulation of [^3 H]thymidine uptake in CHO pro-5 cells transfected with human DA D4.2 receptor cDNA caused by the DA agonist quinpirole was employed as an in vitro measure of DA receptor antagonist activity (Pugsley, et al., 1995). The effects of compounds on synthesis rates of rat brain catecholamines were estimated by measuring the accumulation of [3-(3,4-dihydroxyphenyl)-L-alanine (DOPA) after administration of the L-aromatic amino acid decarboxylase inhibitor, NSD 1015 (Pugsley, et al., 1995).
[^3 H]Thymidine Uptake Assay
The effects of test compounds on [^3 H]thymidine uptake were carried out essentially as described by Pugsley, et al., 1995. CHO p-5 cells transfected with human D4.2 cDNA were seeded into 96-well plates at a density of about 5000 cells/well and were grown at 37° C. in a minimum essential medium (aMEM, Gibco) with 10% calf serum for 2 days. The wells were then rinsed three times with serum-free media. Fresh media ([…]) was added along with […] of test compound in water or vehicle alone. Eight wells of each plate received […] of aMEM with 10% fetal calf serum. After culture for 16 to 17 hours, [3H]thymidine ([…]) was added for 4 hours. The cells were trypsinized and harvested onto filter mats with a 96-well Brandel cell harvester. The filters were counted in a Beta-Plate scintillation counter.

`Cc1ccc(N2CCN(Cc3ccc4c(c3)NCCN4)CC2)cc1C` [Example 2, 6-[4-(3,4-Dimethylphenyl)piperazin-1-ylmethyl]-1,2,3,4-tetrahydroquinoxaline]: the 50% inhibitory concentration (IC50) at human D4.2 receptor turned out to be 2.8 nM; against human DA D4.2 receptor, 1.6 nM.

For orientation: IC50 means the concentration needed to halve the response being measured. A high value points to lower potency.

For the origin of these results see US5885994A, “Tetrahydroquinoxaline dopamine D4 receptor antagonists” (Warner-Lambert Company, priority 1998, dated 1999).
